According to patent US20250144067A1, “PERSONALIZED STARVATION THERAPY FOR CANCER” (Faeth Therapeutics, Inc., priority 2021, published 2025):
Where a name gives a salt, the structure may show the parent alone.

Tests used:
[1] = test system: NCI-H292 lung cancer cells; test: FDA drug screening, complete media vs cholesterol-free media with simvastatin (TABLE 2); assay type: cell-based, human; conditions: for Cholesterol-free media + simvastatin (0.04 μM) / Complete Media: NCI-H292 cells
[2] = test system: NCI-H292 lung cancer cells; test: FDA drug screening, complete media vs cholesterol-free media without statin (TABLE 1); assay type: cell-based, human
[3] = cholesterol-free media with simvastatin 0.04 μM, cell growth value in FDA drug screen
[4] = complete media, cell growth value in FDA drug screen
[5] = complete media minus cholesterol-free media + simvastatin, >0 enhanced anti-cancer activity, about 0 neutral, <0 antagonist
[6] = NCI-H292 cells, cholesterol-free media without statin
[7] = FDA library drug in cholesterol-free media with simvastatin 0.04 μM
[8] = FDA library drug in complete media
[9] = complete media vs cholesterol-free media + simvastatin (0.04 μM), >0 enhanced anti-cancer activity, about 0 neutral, <0 antagonist
[10] = NCI-H292 cells, cholesterol-free media without statin, FDA drug library screen
[11] = NCI-H292 cells, complete media, FDA drug library screen
[12] = complete vs cholesterol-free media, >0 enhanced anti-cancer activity, about 0 neutral, <0 antagonist
[13] = FDA drug library screen, cholesterol-free media with simvastatin 0.04 μM
[14] = FDA drug library screen, complete media
[15] = Complete minus Cholesterol-free, greater than 0 enhanced anti-cancer activity, about 0 neutral, below 0 antagonists
[16] = NCI-H292 cells in cholesterol-free media without statin
[17] = NCI-H292 cells in complete media
[18] = Complete minus Cholesterol-free, greater than 0 enhanced anti-cancer activity, about 0 neutral, below 0 antagonist
[19] = NCI-H292 cells, FDA drug library screen, cholesterol-free media without statin
[20] = NCI-H292 cells, FDA drug library screen, complete media
[21] = drug in cholesterol-free media with simvastatin 0.04 μM
[22] = Complete minus Cholesterol-free, >0 enhanced anti-cancer activity, about 0 neutral, <0 antagonist
[23] = cholesterol-free media with simvastatin 0.04 μM, FDA drug library screen (TABLE 2)
[24] = complete media, FDA drug library screen (TABLE 2)
[25] = complete media minus cholesterol-free media + simvastatin (0.04 μM), >0 enhanced anti-cancer activity, about 0 neutral, <0 antagonist
[26] = complete media vs cholesterol-free media + simvastatin (0.04 μM), […]
[27] = complete vs cholesterol-free media, […]

NNc1nncc2ccccc12 [Hydralazine (hydrochloride)]
Cholesterol-free media + simvastatin (0.04 μM) [1, 3]: 1.049
Complete Media [1, 4]: 1.113
Difference [1, 5]: 0.06
Cholesterol-free [2, 6]: 1.529
Complete ([2]; NCI-H292 cells, complete media): 1.081
Difference ([2]; complete vs cholesterol-free media, greater than 0 enhanced anti-cancer activity, about 0 neutral, below 0 antagonists): −0.45

CC[C@@H](CO)NCCN[C@@H](CC)CO [Ethambutol (dihydrochloride)]
Cholesterol-free media + simvastatin (0.04 μM) [1, 7]: 1.428
Complete Media [1, 8]: 1.016
Difference [1, 9]: −0.41
Cholesterol-free [2, 10]: 0.4829
Complete [2, 11]: 1.206
Difference [2, 12]: 0.72

COC(=O)C1=C(C)NC(C)=C(C(=O)OC)C1c1ccccc1[N+](=O)[O-] [Nifedipine]
Cholesterol-free media + simvastatin (0.04 μM) [1, 13]: 1.819
Complete Media [1, 14]: 1.696
Difference [1, 9]: −0.12
Difference [2, 15]: −0.53
Cholesterol-free [2, 16]: 1.45
Complete [2, 17]: 0.9229

Cc1cc(C2CCCCC2)n(O)c(=O)c1 [Ciclopirox (olamine)]
Cholesterol-free media + simvastatin (0.04 μM) [1, 3]: 0.5971
Complete Media [1, 4]: 0.715
Difference [1, 5]: 0.12
Difference [2, 18]: −0.13
Cholesterol-free [2, 19]: 0.3971
Complete [2, 20]: 0.2691

Cc1ccc(Nc2nccc(N(C)c3ccc4c(C)n(C)nc4c3)n2)cc1S(N)(=O)=O [Pazopanib (Hydrochloride)]
Cholesterol-free media + simvastatin (0.04 μM) [1, 13]: 0.5325
Complete Media [1, 14]: 1.206
Difference [1, 5]: 0.67
Difference [2, 18]: −0.12
Cholesterol-free [2, 19]: 1.089
Complete [2, 20]: 0.9723

CO[C@H]1/C=C/O[C@@]2(C)Oc3c(C)c(O)c4c(c3C2=O)C2=NC3(CCN(CC(C)C)CC3)NC2=C(NC(=O)/C(C)=C\C=C\[C@H](C)[C@H](O)[C@@H](C)[C@@H](O)[C@@H](C)[C@H](OC(C)=O)[C@@H]1C)C4=O [Rifabutin]
Cholesterol-free media + simvastatin (0.04 μM) [1, 21]: 1.205
Complete Media ([1]; drug in complete media): 0.9499
Difference [1, 9]: −0.26
Cholesterol-free [2, 10]: 0.7322
Complete [2, 11]: 0.8211
Difference [2, 12]: 0.09

CC(C)c1nc(N(C)S(C)(=O)=O)nc(-c2ccc(F)cc2)c1/C=C/[C@@H](O)C[C@@H](O)CC(=O)O [Rosuvastatin (Calcium)]
Cholesterol-free media + simvastatin (0.04 μM) [1, 3]: 0.9188
Complete Media [1, 4]: 1.001
Difference [1, 5]: 0.08
Difference [2, 22]: −0.24
Cholesterol-free [2, 6]: 1.156
Complete ([2]; NCI-H292 cells, complete media): 0.9201

Butoconazole (nitrate)
Cholesterol-free media + simvastatin (0.04 μM) [1, 13]: 0.1838
Complete Media [1, 14]: 0.9232
Difference [1, 5]: 0.74
Difference [2, 18]: −0.19
Cholesterol-free [2, 19]: 0.9845
Complete [2, 20]: 0.7977

CCCCC(=O)N(Cc1ccc(-c2ccccc2-c2nnn[nH]2)cc1)[C@H](C(=O)O)C(C)C [Valsartan]
Cholesterol-free media + simvastatin (0.04 μM) [1, 21]: 1.056
Complete Media ([1]; drug in complete media): 0.8568
Difference [1, 9]: −0.20
Difference [2, 18]: −0.09
Cholesterol-free [2, 19]: 0.8984
Complete [2, 20]: 0.8065

CC[C@H]1CN2CC[C@H]1C[C@@H]2[C@@H](O)c1ccnc2ccc(OC)cc12 [Hydroquinidine]
Cholesterol-free media + simvastatin (0.04 μM) [1, 7]: 1.791
Complete Media [1, 8]: 1.518
Difference [1, 9]: −0.27
Difference [2, 22]: 0.06
Cholesterol-free [2, 10]: 0.8191
Complete [2, 11]: 0.8815

Nc1ccc(S(=O)(=O)c2ccc(N)cc2)cc1 [Dapsone]
Cholesterol-free media + simvastatin (0.04 μM) [1, 13]: 0.9689
Complete Media [1, 14]: 1.132
Difference [1, 5]: 0.16
Difference [2, 15]: −0.48
Cholesterol-free [2, 16]: 1.475
Complete [2, 17]: 0.9984

COc1ccc2cccc(CCNC(C)=O)c2c1 [Agomelatine (hydrochloride)]
Cholesterol-free media + simvastatin (0.04 μM) [1, 7]: 1.126
Complete Media [1, 8]: 0.7656
Difference [1, 9]: −0.36
Difference [2, 22]: 0.00
Cholesterol-free [2, 10]: 0.7477
Complete [2, 11]: 0.7483

CN1C(CCl)Nc2cc(Cl)c(S(N)(=O)=O)cc2S1(=O)=O (stereo not drawn) [Methyclothiazide]
Cholesterol-free media + simvastatin (0.04 μM) [1, 23]: 1.147
Complete Media [1, 24]: 1.081
Difference [1, 25]: −0.07
Difference [2, 22]: −0.24
Cholesterol-free [2, 6]: 1.096
Complete ([2]; NCI-H292 cells, complete media): 0.856

Setiptiline (maleate)
Cholesterol-free media + simvastatin (0.04 μM) [1, 21]: 1.022
Complete Media ([1]; drug in complete media): 0.7709
Difference [1, 9]: −0.25
Difference [2, 22]: 0.02
Cholesterol-free [2, 10]: 0.9606
Complete [2, 11]: 0.9832

Indinavir (sulfate)
Cholesterol-free media + simvastatin (0.04 μM) [1, 23]: 0.8636
Difference [1, 25]: 0.01
Difference [2, 15]: −0.65
Cholesterol-free [2, 16]: 1.599
Complete [2, 17]: 0.946

CC(C)(C#N)c1cc(Cn2cncn2)cc(C(C)(C)C#N)c1 [Anastrozole]
Cholesterol-free media + simvastatin (0.04 μM) [1, 23]: 1.07
Complete Media [1, 24]: 1.045
Difference [1, 25]: −0.02
Difference [2, 22]: −0.28
Cholesterol-free [2, 6]: 1.263
Complete ([2]; NCI-H292 cells, complete media): 0.9847

Cc1ccc2c(c1)c1c(n2CCc2ccc(C)nc2)CCN(C)C1 [Latrepirdine (dihydrochloride)]
Cholesterol-free media + simvastatin (0.04 μM) [1, 3]: 1.036
Complete Media [1, 4]: 1.07
Difference [1, 5]: 0.03
Difference [2, 15]: −0.58
Cholesterol-free [2, 16]: 1.66
Complete [2, 17]: 1.083

C=Cc1c(C)c2cc3nc(c(CC(=O)N[C@@H](CC(=O)O)C(=O)O)c4[nH]c(cc5nc(cc1[nH]2)C(C)=C5CC)c(C)c4C(=O)O)[C@@H](CCC(=O)O)[C@@H]3C [Talaporfin (sodium)]
Cholesterol-free media + simvastatin (0.04 μM) [1, 13]: 1.087
Complete Media [1, 14]: 0.9459
Difference [1, 9]: −0.14
Difference [2, 22]: −0.29
Cholesterol-free [2, 6]: 1.22
Complete ([2]; NCI-H292 cells, complete media): 0.9319

Bulleyaconitine A
Difference ([1]; complete media minus cholesterol-free media + simvastatin, […]): 0.03
Difference ([2]; Complete minus Cholesterol-free, […]): −0.17
Cholesterol-free [2, 19]: 1.261
Complete [2, 20]: 1.091

CCc1cc(C(N)=S)ccn1 [Ethionamide]
Cholesterol-free media + simvastatin (0.04 μM) [1, 23]: 1.611
Complete Media [1, 24]: 1.611
Difference [1, 25]: 0.00
Difference [2, 15]: −0.66
Cholesterol-free [2, 16]: 1.516
Complete [2, 17]: 0.857

CCC(=O)O[C@H]1CC[C@H]2[C@@H]3CCC4=CC(=O)CC[C@]4(C)[C@H]3CC[C@]12C [Testosterone propionate]
Cholesterol-free media + simvastatin (0.04 μM) [1, 7]: 1.059
Complete Media [1, 8]: 0.7669
Difference [1, 26]: −0.29
Cholesterol-free [2, 6]: 1.308
Complete ([2]; NCI-H292 cells, complete media): 0.9212
Difference [2, 27]: −0.39

Cc1ncc([N+](=O)[O-])n1CCO [Metronidazole]
Cholesterol-free media + simvastatin (0.04 μM) [1, 7]: 1.741
Complete Media [1, 8]: 1.475
Difference [1, 9]: −0.27
Difference [2, 22]: −0.03
Cholesterol-free [2, 10]: 1.006
Complete [2, 11]: 0.9754

Cc1ccnc2c1NC(=O)c1cccnc1N2C1CC1 [Nevirapine]
Cholesterol-free media + simvastatin (0.04 μM) [1, 7]: 1.384
Complete Media [1, 8]: 0.9254
Difference [1, 9]: −0.46
Cholesterol-free [2, 10]: 0.7658
Complete [2, 11]: 1.137
Difference [2, 12]: 0.37

CCc1ccc(C(=O)C(C)CN2CCCCC2)cc1 (stereo not drawn) [Eperisone (Hydrochloride)]
Cholesterol-free media + simvastatin (0.04 μM) [1, 13]: 1.323
Complete Media [1, 14]: 1.222
Difference [1, 9]: −0.10
Difference [2, 18]: −0.09
Cholesterol-free [2, 19]: 0.978
Complete [2, 20]: 0.8889

CN[C@@H]1[C@H](O)[C@H](NC)[C@H]2O[C@@]3(O)C(=O)C[C@@H](C)O[C@H]3O[C@@H]2[C@H]1O [Spectinomycin (dihydrochloride)]
Cholesterol-free media + simvastatin (0.04 μM) [1, 23]: 1.126
Complete Media [1, 24]: 1.142
Difference [1, 25]: 0.02
Cholesterol-free [2, 10]: 0.9841
Complete [2, 11]: 1.077
Difference [2, 12]: 0.09

O=C(O)Cc1ccccc1Nc1c(Cl)cccc1Cl [Diclofenac]
Cholesterol-free media + simvastatin (0.04 μM) [1, 7]: 1.089
Complete Media [1, 8]: 0.821
Difference [1, 9]: −0.27
Difference [2, 22]: −0.25
Cholesterol-free [2, 6]: 1.167
Complete ([2]; NCI-H292 cells, complete media): 0.917

CC(C)(C)C(=O)OCOC(=O)[C@@H]1N2C(=O)[C@@H](/N=C/N3CCCCCC3)[C@H]2SC1(C)C [Pivmecillinam (hydrochloride)]
Cholesterol-free media + simvastatin (0.04 μM) [1, 21]: 1.219
Complete Media ([1]; drug in complete media): 1.044
Difference [1, 9]: −0.18
Difference [2, 15]: −0.49
Cholesterol-free [2, 16]: 1.646
Complete [2, 17]: 1.161

C=CCc1ccc(O)c(-c2cc(CC=C)ccc2O)c1 [Magnolol]
Cholesterol-free media + simvastatin (0.04 μM) [1, 21]: 1.293
Complete Media ([1]; drug in complete media): 1.087
Difference [1, 26]: −0.21
Cholesterol-free [2, 10]: 0.6495
Complete [2, 11]: 1.053
Difference [2, 27]: 0.40

Nelfinavir (Mesylate)
Cholesterol-free media + simvastatin (0.04 μM) [1, 7]: 1.565
Complete Media [1, 8]: 1.199
Difference [1, 9]: −0.37
Difference [2, 22]: −0.02
Cholesterol-free [2, 10]: 1.193
Complete [2, 11]: 1.169
